Drawing on US9890147B2 (BAYER PHARMA AKTIENGESELLSCHAFT, priority 2012, dated 2018), this text covers IC50 for 13 molecules.

The subject of one assay is LAPC-4 cells. Put plainly: Cell proliferation assay (alamarBlue), LAPC-4. The conditions noted are these: Homo sapiens, LAPC4; inhibition of cell proliferation, LAPC-4 (prostate cancer), 1 nM methyltrienolone, 168 hours. The class given is cell-based. As for the experimental part:
(§1) In accordance with the invention, the capability of the substances to inhibit cell proliferation was determined Cell viability was determined using the alamarBlue® reagent (Invitrogen) in a Victor X3 Multilabel Reader (Perkin Elmer). The excitation wavelength was 530 nm and the emission wavelenth […].
The LAPC-4 cells (ATCC, PTA-1441TM) were sown at a concentration of 4000 cells/well in 100 μl growth medium (RPMI1640, 2 mM L-glutamine, 10% cFCS) on 96-well microtitre plates. A day later, the LAPC-4 cells were treated with 1 nM methyltrienolone and various substance dilutions.
(§2) After an overnight incubation at 37° C., the fluorescence values (CI values) were determined. The plates were then treated with various substance dilutions (1E-5 M, 3E-6 M, 1E-6M, 3E-7 M, 1E-7 M, 3E-8 M, 1E-8 M) and incubated at 37° C. for 72 (MV4-11-, LOX-IMVI cells), 96 (MOLM-13-, B16F10-, MDA-MB-431-, Caov-3 cells), 120 (MOLP-8-, KMS-12-PE cells) or 168 (LAPC-4 cells) hours. The fluorescence values (CO values) were then determined. For the data analysis, the CI values were subtracted from the CO values and the results were compared between cells treated with different dilutions of the substance or with buffer solution only. These were used to calculate the IC 50 values (substance concentration required for 50% inhibition of cell proliferation).
(Resazurin is reduced to fluorescent resorufin, in cell work by metabolically active cells.)

A further assay concerns MOLM-13 cells. As to the kind of experiment: Cell proliferation assay (alamarBlue), MOLM-13. The class given is cell-based. As to conditions: Homo sapiens, 96 hours incubation, inhibition of cell proliferation. The method in brief: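 Cells in RPMI1640/10% FCS read by alamarBlue fluorescence (ex 530, em 590 nm) after overnight 37 °C incubation, then treated at 1E-5 to 1E-8 M for 96 h. Pre-treatment values subtracted from endpoint values and compared with buffer-only wells; IC50 is 50% proliferation inhibition.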

Another assay addresses T1, BRD4 (BD1) (Homo sapiens, UniProt O60885).
T1 construct: with relatively long constructs also being possible, preferably amino acids 44-168; made in house; host or cells: E. coli
As to the kind of experiment: Binding assay BRD4/acetylated peptide H4 (TR-FRET protein-protein interaction assay). The method in brief:
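His6-BRD4 BD1 (aa 67-152, E. coli), usually 10 nM, with biotinylated tetra-acetylated H4 peptide in HEPES pH 7.5 buffer; 11 compound concentrations 0.1 nM–20 μM in duplicate, 10 min preincubation, 1 h at 22 °C then ≥3 h at 4 °C. TR-FRET 665/620 ratio; IC50 by 4-parameter fit.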

The subject of another assay is MOLP-8 cells. As to the kind of experiment: Cell proliferation assay (alamarBlue), MOLP-8. The class given is cell-based. The conditions noted are these: Homo sapiens, 120 hours incubation, inhibition of cell proliferation. An outline of the steps:
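MOLP-8 cells in RPMI1640 with 20% FCS, 4000 cells/well, treated overnight after seeding with substance at 1E-5 to 1E-8 M for 120 h at 37° C. Viability read by alamarBlue fluorescence (ex 530, em 590); pre-treatment values subtracted, compared with buffer-only cells to derive IC50.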

A further assay deals with B16F10 cells. As to the kind of experiment: Cell proliferation assay (alamarBlue), B16F10. The class given is cell-based. As to conditions: Mus musculus, B16-F10, 96 hours incubation, inhibition of cell proliferation. Here is the method:
as §1
The B16F10 cells (ATCC, CRL-6475) were sown at a concentration of 300-500 cells/well in 100 μl growth medium (DMEM with phenol red, 10% FCS) on 96-well microtitre plates.
as §2

The subject of another assay is LOX-IMVI cells. As to the kind of experiment: Cell proliferation assay (alamarBlue), LOX-IMVI. The class given is cell-based. The conditions noted are these: Homo sapiens, 72 hours incubation, inhibition of cell proliferation. The method in brief: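 Cells seeded at 1000/well in RPMI1640 with 10% FCS, incubated overnight at 37° C, then treated with dilutions from 1E-5 to 1E-8 M for 72 h. Viability read by alamarBlue fluorescence (ex 530/em 590 nm); pre-treatment values subtracted and compared with buffer-only cells to derive IC50.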

The subject of the next assay is MV4-11 cells. As to the kind of experiment: Cell proliferation assay (alamarBlue), MV4-11. The class given is cell-based. As to conditions: Homo sapiens, 72 hours incubation, inhibition of cell proliferation. An outline of the steps: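 Cells seeded at 5000/well in RPMI1640 + 10% FCS, incubated overnight at 37° C, then treated with compound (1E-5 to 1E-8 M) for 72 h at 37° C. Viability by alamarBlue fluorescence (ex 530/em 590 nm); pre-treatment readings subtracted, IC50 derived versus buffer-treated cells.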

For another assay, the system named is KMS-12-PE cells. Put plainly: Cell proliferation assay (alamarBlue), KMS-12-PE. The class given is cell-based. As to conditions: Homo sapiens, 120 hours incubation, inhibition of cell proliferation. The method in brief:
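KMS-12-PE myeloma cells in RPMI1640 with 20% FCS were exposed to compound (1E-5 to 1E-8 M) for 120 h at 37° C. AlamarBlue fluorescence (ex 530, em 590 nm) read before and after treatment; the difference versus buffer-treated cells gave IC50.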

The subject of a further assay is Caov-3 cells. Put plainly: Cell proliferation assay (alamarBlue), Caov-3. The class given is cell-based. As to conditions: Homo sapiens; inhibition of cell proliferation, Caov-3 (ovarian carcinoma), 96 hours. The method in brief:
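Caov-3 (MEM Earle's, 10% FCS, 2000 cells/well) and MDA-MB-231 (DMEM/Ham's F12, 10% FCS, 4000 cells/well) were treated after overnight attachment with 1E-5 to 1E-8 M compound. Caov-3 exposure was 96 h. alamarBlue fluorescence (ex 530, em 590 nm) was read after background subtraction of day-0 values, and IC50 calculated versus buffer-treated cells.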

In another assay the test system is MDA-MB-231 cells. Put plainly: Cell proliferation assay (alamarBlue), MDA-MB-231. The class given is cell-based. As to conditions: Homo sapiens; inhibition of cell proliferation, MDA-MB-231 (breast carcinoma), 96 hours. As for the experimental part: as §1
The MDA-MB-231 cells (DSMZ, ACC 732) were sown at a concentration of 4000 cells/well in 100 μl growth medium (DMEM/Ham's F12 medium, 10% FCS) on 96-well microtitre plates. The Caov-3 cells (ATCC, HTB-75) were sown at a concentration of 2000 cells/well in 100 μl growth medium (MEM Earle's medium, 10% FCS) on 96-well microtitre plates.
as §2

Usually IC50 stands for the concentration that gives 50% inhibition. As to `CNC(=O)N1N=C(c2ccc(-n3nc(C)cc3COC)cc2)c2cc(OC)ccc2C[C@@H]1C` [Example 27, (4S)-8-methoxy-1-{4-[5-(methoxymethyl)-3-methyl-1H-pyrazol-1-yl]phenyl}-N,4-dimethyl-4,5-dihydro-3H-2,3-benzodiazepine-3-carboxamide], the IC50 in the assay on LAPC-4 cells is 180 nM; with MOLM-13 cells, 630 nM; at BRD4 (BD1), 30 nM.
Regarding `CNC(=O)C1CCN(c2ccc(C3=NN(C(=O)NC)[C@@H](C)Cc4cc(OC)c(OC)cc43)cc2)CC1` [Example 189.1, (4S)-7,8-dimethoxy-N,4-dimethyl-1-{4-[4-(methylcarbamoyl)piperidin-1-yl]phenyl}-4,5-dihydro-3H-2,3-benzodiazepine-3-carboxamide], the IC50 was determined as 210 nM in the assay on MOLM-13 cells, 80 nM with MOLP-8 cells, 40 nM on BRD4 (BD1) and 100 nM in the assay with B16F10 cells.
In the case of `CNC(=O)N1N=C(c2ccc(-c3ccnn3C)cc2)c2cc(OC)ccc2C[C@@H]1C` [Example 19, (4S)-8-methoxy-N,4-dimethyl-1-[4-(1-methyl-1H-pyrazol-5-yl)phenyl]-4,5-dihydro-3H-2,3-benzodiazepine-3-carboxamide], the IC50 in the assay with LOX-IMVI cells was found to be 650 nM; with MV4-11 cells it was 270 nM; in the assay with LAPC-4 cells it was 110 nM; in the assay with MOLM-13 cells, 170 nM; with MOLP-8 cells, 270 nM; at BRD4 (BD1), 40 nM. Besides, the IC50 with KMS-12-PE cells is 270 nM; in the assay on Caov-3 cells, 410 nM.
Turning to `CNC(=O)N1N=C(c2ccc(Cl)cc2)c2cc(N3CCOCC3)ccc2C[C@@H]1C` [Example 11.1, (4S)-1-(4-Chlorophenyl)-N,4-dimethyl-8-(morpholin-4-yl)-4,5-dihydro-3H-2,3-benzodiazepine-3-carboxamide], the IC50 in the assay on LAPC-4 cells amounted to 310 nM; in the assay with MOLM-13 cells, 570 nM; in the assay on MDA-MB-231 cells it was 1110 nM; on BRD4 (BD1), 80 nM.
As to `CNC(=O)N1N=C(c2ccc(-n3nc(COC)cc3C)cc2)c2cc(OC)ccc2C[C@@H]1C` [Example 26, (4S)-8-methoxy-1-{4-[3-(methoxymethyl)-5-methyl-1H-pyrazol-1-yl]phenyl}-N,4-dimethyl-4,5-dihydro-3H-2,3-benzodiazepine-3-carboxamide], the IC50 with LAPC-4 cells came out at 130 nM; in the assay with MOLM-13 cells, 430 nM; on BRD4 (BD1), 40 nM.
In the case of `CNC(=O)N1N=C(c2ccc(-c3cnoc3)cc2)c2cc(OC)ccc2C[C@@H]1C` [Example 18, (4S)-1-[4-(4-Isoxazolyl)phenyl]-8-methoxy-N,4-dimethyl-4,5-dihydro-3H-2,3-benzodiazepine-3-carboxamide], the IC50 in the assay with LOX-IMVI cells came out at 760 nM; in the assay on MV4-11 cells, 300 nM; with MOLM-13 cells, 250 nM; with MOLP-8 cells it was 340 nM; in the assay on MDA-MB-231 cells, 280 nM; at BRD4 (BD1), 160 nM. Further, the IC50 was 350 nM with KMS-12-PE cells and 480 nM in the assay on Caov-3 cells.
For the molecule `CNC(=O)N1N=C(c2ccc(Cl)cc2)c2cc(OC(F)(F)F)c(Cl)cc2CC1C` (racemic) [Example 15], the IC50 is 3450 nM with MOLM-13 cells, 6230 nM in the assay with MDA-MB-231 cells and 870 nM on BRD4 (BD1).
Consider `CNC(=O)N1N=C(c2ccc(-n3nc(-c4ccccn4)cc3C3CC3)cc2)c2cc(OC)ccc2C[C@@H]1C` [Example 28, (4S)-1-{4-[5-cyclopropyl-3-(pyridin-2-yl)-1H-pyrazol-1-yl]phenyl}-8-methoxy-N,4-dimethyl-4,5-dihydro-3H-2,3-benzodiazepine-3-carboxamide], for which the 50% inhibitory concentration (IC50) in the assay on LOX-IMVI cells was found to be 40 nM; with MV4-11 cells, 30 nM; in the assay on LAPC-4 cells, 20 nM; in the assay with MOLM-13 cells, 40 nM; in the assay on MOLP-8 cells, 20 nM; on BRD4 (BD1), 10 nM. Moreover, the IC50 was 30 nM in the assay on KMS-12-PE cells and 40 nM with Caov-3 cells.
Turning to `CNC(=O)C1CCN(c2ccc(C3=NN(C(=O)NC)C(C)Cc4cc(OC)c(OC)cc43)cc2)CC1` (racemic) [Example 189, (±)-7,8-dimethoxy-N,4-dimethyl-1-{4-[4-(methylcarbamoyl)piperidin-1-yl]phenyl}-4,5-dihydro-3H-2,3-benzodiazepine-3-carboxamide], the results for the IC50 with MOLM-13 cells, at BRD4 (BD1) and with B16F10 cells were 440 nM, 60 nM and 210 nM, respectively.
With `CNC(=O)N1N=C(c2ccc(Cl)cc2)c2cc(N3CCOCC3)ccc2C[C@H]1C` [Example 11.2, (4R)-1-(4-Chlorophenyl)-N,4-dimethyl-8-(morpholin-4-yl)-4,5-dihydro-3H-2,3-benzodiazepine-3-carboxamide], the results for the IC50 in the assay with MOLM-13 cells, with MDA-MB-231 cells and on BRD4 (BD1) were 7740 nM, 10000 nM and 2510 nM, respectively.
Regarding `CNC(=O)N1N=C(c2ccc(N3CCN(C)CC3)cc2)c2cc(OC(F)(F)F)ccc2CC1C` (racemic) [Example 250, (±)-N,4-dimethyl-1-[4-(4-methyl-1-piperazinyl)phenyl]-8-(trifluoromethoxy)-4,5-dihydro-3H-2,3-benzodiazepine-3-carboxamide], the IC50 amounted to 140 nM with MOLM-13 cells, 40 nM at BRD4 (BD1) and 100 nM with B16F10 cells.
For `CNC(=O)N1N=C(c2ccc(N3CCN(C(C)C)CC3)cc2)c2cc(OC)c(OC)cc2CC1C` (racemic) [Example 186, (±)-1-[4-(4-Isopropylpiperazin-1-yl)phenyl]-7,8-dimethoxy-N,4-dimethyl-4,5-dihydro-3H-2,3-benzodiazepine-3-carboxamide], in that order: 330 nM, 130 nM and 240 nM.
Regarding `CNC(=O)N1N=C(c2ccc(-c3ccn[nH]3)cc2)c2cc(OC)ccc2C[C@@H]1C` [Example 23, (4S)-8-methoxy-N,4-dimethyl-1-[4-(1H-pyrazol-5-yl)phenyl]-4,5-dihydro-3H-2,3-benzodiazepine-3-carboxamide], the IC50 in the assay with LAPC-4 cells was found to be 190 nM; with MOLM-13 cells, 270 nM; on BRD4 (BD1) it was 90 nM.
